The source of these data is patent publication US20250325677A1, “STAT6 DEGRADERS” (Gilead Sciences, Inc., priority 2024, published 2025).

In general, DC50 refers to the concentration giving 50% degradation. The Kd is the equilibrium constant for the complex coming apart. Broadly, the EC50 is the concentration that produces a half-maximal response.

In test [1] the target is T1, STAT6 (Homo sapiens (Human), UniProt P42226). Kind of test: STAT6 degrader assay (HiBiT, HeLa LgBiT clone 4.14). It is filed as cell-based. The note with it: HeLa LgBiT clone 4.14, 4-24 h; geometric mean; given for compounds with >80% Emax; read-out: STAT6 degradation DC50. The essentials:
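HeLa LgBiT clone 4.14 cells with HiBiT knocked into endogenous STAT6 were treated with compound for 4-24 h at 37° C. Luminescence after Nano-GLO substrate (0.5 h) measured remaining STAT6; 50 μM terfenadine wells defined 100% degradation, and DC50 (nM) was derived.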
Target sequence in this assay (P42226 whole entry): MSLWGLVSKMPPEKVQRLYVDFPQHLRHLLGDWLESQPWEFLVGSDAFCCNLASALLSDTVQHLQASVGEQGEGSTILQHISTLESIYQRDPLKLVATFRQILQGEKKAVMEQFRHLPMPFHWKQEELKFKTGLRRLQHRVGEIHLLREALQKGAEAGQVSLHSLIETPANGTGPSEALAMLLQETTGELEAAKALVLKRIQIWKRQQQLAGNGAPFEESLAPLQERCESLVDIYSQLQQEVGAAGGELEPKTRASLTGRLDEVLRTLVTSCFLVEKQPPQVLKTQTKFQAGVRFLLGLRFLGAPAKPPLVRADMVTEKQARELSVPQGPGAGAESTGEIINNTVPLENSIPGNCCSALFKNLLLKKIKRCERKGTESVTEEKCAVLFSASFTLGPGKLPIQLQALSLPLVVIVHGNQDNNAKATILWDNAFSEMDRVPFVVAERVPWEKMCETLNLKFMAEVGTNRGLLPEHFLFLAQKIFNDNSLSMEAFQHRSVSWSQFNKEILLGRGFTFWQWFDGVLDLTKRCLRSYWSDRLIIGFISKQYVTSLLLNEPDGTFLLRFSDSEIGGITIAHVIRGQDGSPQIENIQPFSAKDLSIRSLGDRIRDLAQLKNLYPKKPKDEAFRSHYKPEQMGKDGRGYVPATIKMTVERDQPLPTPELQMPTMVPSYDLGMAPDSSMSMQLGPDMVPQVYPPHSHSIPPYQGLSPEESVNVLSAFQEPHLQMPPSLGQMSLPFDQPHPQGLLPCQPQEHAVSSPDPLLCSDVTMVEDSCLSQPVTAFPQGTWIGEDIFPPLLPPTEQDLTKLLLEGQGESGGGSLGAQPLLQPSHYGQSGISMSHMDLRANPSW

Test [2] concerns the target T1, STAT6. Put plainly: Surface plasmon resonance assay. It counts as binding. To be noted: truncated human STAT6 aa122-658, 25° C.; read-out: STAT6 SPR Kd. How it is done:
Surface Plasmon Resonance Assay
SPR was used to confirm and quantify binding of compounds to human STAT6. Biacore instruments from the 8K-series (Cytiva) were used, and measurements were performed at 25° C. Human STAT6 (truncated, aa122-658, with N-terminal His-tag, expressed in insect cells) was immobilized in the active flow cells on a CM5 chip using amine-coupling (default settings) at 10 μg/ml in 10 mM acetate buffer pH 5.5, at a contact time of 120-420 sec. and a flow rate of 10 μl/min. Reference flow cells were deactivated using blank immobilization. PBS-P+(Cytiva) supplemented with 2% DMSO was used as running buffer, and solvent correction was applied. Compounds were tested by multi-cycle kinetics injections using a contact time of 60 sec., dissociation time of up to 300 sec., and a flow rate of 30 μl/min.
Solvent-corrected, reference-subtracted and blank-corrected data was processed and binding isotherms were fitted according to a single report point from each sensorgram (Standard: Late binding (5 sec. before injection end); alternative: Earlier report point according to binding profile). Data fitting was done both with unfixed Rmax and with Rmax fixed to the theoretical value* assuming 1:1 binding to allow processing of data from both weak and strong binders as well as to evaluate binding stoichiometry.
Positive controls were run at the beginning, during, and at the end of the screen to evaluate surface activity. Generally surface activity was only affected to a minor degree, and no corrections were applied. • Equation for calculation of the theoretical Rmax (Theoretical Rmax=(MW Analyte/MW Ligand)×immobilization level).
The sensorgrams for Examples 3e5, 3t4, and 3p1 are shown in FIG. 1 (where RU is plotted vs. time in seconds; dotted lines/points were excluded from the analysis due to effects from non-specific binding)).
Target sequence in this assay (P42226 122-658): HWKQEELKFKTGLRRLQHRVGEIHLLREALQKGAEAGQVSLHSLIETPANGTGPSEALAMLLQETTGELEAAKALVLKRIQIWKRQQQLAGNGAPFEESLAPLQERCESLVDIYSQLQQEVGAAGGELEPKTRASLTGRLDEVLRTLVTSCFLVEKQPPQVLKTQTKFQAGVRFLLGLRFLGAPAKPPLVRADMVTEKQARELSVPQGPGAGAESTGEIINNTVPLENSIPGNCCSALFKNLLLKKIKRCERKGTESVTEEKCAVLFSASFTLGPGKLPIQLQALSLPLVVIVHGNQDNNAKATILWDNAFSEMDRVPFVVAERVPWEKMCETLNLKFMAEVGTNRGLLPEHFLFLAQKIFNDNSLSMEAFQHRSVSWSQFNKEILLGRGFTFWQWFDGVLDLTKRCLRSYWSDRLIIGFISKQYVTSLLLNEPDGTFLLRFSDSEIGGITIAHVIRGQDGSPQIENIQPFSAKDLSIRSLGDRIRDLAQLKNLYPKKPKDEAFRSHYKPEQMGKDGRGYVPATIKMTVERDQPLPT
(In general: In SPR one partner is held on a chip, and binding of the other changes the refractive index at the surface.)

For another test, the system named is eotaxin-3 release. Kind of test: Human whole blood eotaxin-3 assay (IL-4 stimulated). It counts as cell-based. The note with it: human whole blood, IL-4 0.4 nM, 48 hours; geometric mean; given for compounds with >80% Emax; read-out: Eotaxin-3 EC50. The gist of the method: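 Human whole blood was preincubated with compound for 120 min at 37 °C, then stimulated with recombinant human IL-4 (E. coli) at 0.4 nM final for 48 h. Inhibition of eotaxin-3 release gave EC50 values.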

`Cn1c(CN2CCC(c3ccc(C(=O)N4CCC(CN5CCN(Cc6ccc7c(c6)n(C6CC6)c(=O)n7C6CCC(=O)NC6=O)CC5)CC4)cc3)CC2)cc2c(-c3ccc(N)nc3)ccnc21` (stereo not shown) [Example 3e5, 3-(5-((4-((1-(4-(1-((4-(6-aminopyridin-3-yl)-1-methyl-1H-pyrrolo[2,3-b]pyridin-2-yl)methyl)piperidin-4-yl)benzoyl)piperidin-4-yl)methyl)piperazin-1-yl)methyl)-3-cyclopropyl-2-oxo-2,3-dihydro-1H-benzo[d]imidazol-1-yl)piperidine-2,6-dione]: at STAT6 [1], the DC50 was determined as 5.4 nM. The dissociation constant (Kd) on STAT6 [2] came to 104 nM.

Turning to `C[C@H]1CN(Cc2ccc3c(c2)oc(=O)n3C2CCC(=O)NC2=O)CCN1CC1CCN(C(=O)c2ccc(C3CCN([C@@H](C)c4cc5c(-c6ccc(N)nc6)ccnc5n4C)CC3)cc2)CC1` (stereo partly drawn) [Example 3n6, 3-(6-(((S)-4-((1-(4-(1-((S)-1-(4-(6-aminopyridin-3-yl)-1-methyl-1H-pyrrolo[2,3-b]pyridin-2-yl)ethyl)piperidin-4-yl)benzoyl)piperidin-4-yl)methyl)-3-methylpiperazin-1-yl)methyl)-2-oxobenzo[d]oxazol-3 (2H)-yl)piperidine-2,6-dione], the DC50 on STAT6 [1] was determined as 0.7 nM. In the test with eotaxin-3 release, the EC50 worked out at 4 nM.

As to `CN(C(=O)c1ccc(C2CCN(Cc3cc4c(-c5ccc(N)nc5)ccnc4n3C)CC2)cc1)c1ccc(C2CCN(Cc3ccc4c(c3)n(C)c(=O)n4C3CCC(=O)NC3=O)CC2)cc1` (stereo not shown) [Example 3p1, 4-(1-((4-(6-aminopyridin-3-yl)-1-methyl-1H-pyrrolo[2,3-b]pyridin-2-yl)methyl)piperidin-4-yl)-N-(4-(1-((1-(2,6-dioxopiperidin-3-yl)-3-methyl-2-oxo-2,3-dihydro-1H-benzo[d]imidazol-5-yl)methyl)-piperidin-4-yl)phenyl)-N-methylbenzamide], the DC50 at STAT6 [1] amounted to 0.1 nM. Moreover, the EC50 in the test on eotaxin-3 release is 1 nM. In addition, the dissociation constant (Kd) at STAT6 [2] was determined as 11.4 nM.

As for `CN(C(=O)c1ccc(C2CCN(Cc3cc4c(-c5ccc(N)nc5)ccnc4n3C)CC2)cc1)c1ccc(C2CCN(Cc3ccc4c(c3)n(C)c(=O)n4C3CCC(=O)NC3=O)CC2(F)F)cc1` (stereo not shown) [Example 3p2, 4-(1-((4-(6-aminopyridin-3-yl)-1-methyl-1H-pyrrolo[2,3-b]pyridin-2-yl)methyl)piperidin-4-yl)-N-(4-(1-((1-(2,6-dioxopiperidin-3-yl)-3-methyl-2-oxo-2,3-dihydro-1H-benzo[d]imidazol-5-yl)methyl)-3,3-difluoropiperidin-4-yl)phenyl)-N-methylbenzamide], the half-maximal degradation concentration (DC50) at STAT6 [1] was found to be 0.8 nM. Further, in the test on eotaxin-3 release, the EC50 was 17 nM.

Turning to `C[C@H]1CN(Cc2ccc3c(c2)C(C)(C)C(=O)N3C2CCC(=O)NC2=O)CCN1CC1CCN(C(=O)c2ccc(C3CCN([C@@H](C)c4cc5c(-c6ccc(N)nc6)ccnc5n4C)CC3)cc2)CC1` (stereo partly drawn) [Example 3r2, 3-(5-(((S)-4-((1-(4-(1-((S)-1-(4-(6-aminopyridin-3-yl)-1-methyl-1H-pyrrolo[2,3-b]pyridin-2-yl)ethyl)piperidin-4-yl)benzoyl)piperidin-4-yl)methyl)-3-methylpiperazin-1-yl)methyl)-3,3-dimethyl-2-oxoindolin-1-yl)piperidine-2,6-dione], the 50% degradation concentration (DC50) at STAT6 [1] is 4.1 nM. The EC50 with eotaxin-3 release was found to be 14.7 nM.

`Cn1c(CN2CCC(c3ccc(-c4nnc5ccc(N6CCC(CN7CCN(Cc8ccc9c(c8)n(C)c(=O)n9C8CCC(=O)NC8=O)CC7)CC6)nn45)cc3)CC2)cc2c(-c3ccc(N)nc3)ccnc21` (stereo not shown) [Example 3t4, 3-(5-((4-((1-(3-(4-(1-((4-(6-aminopyridin-3-yl)-1-methyl-1H-pyrrolo[2,3-b]pyridin-2-yl)methyl)-piperidin-4-yl)phenyl)-[1,2,4]triazolo[4,3-b]pyridazin-6-yl)piperidin-4-yl)methyl)piperazin-1-yl)methyl)-3-methyl-2-oxo-2,3-dihydro-1H-benzo[d]imidazol-1-yl)piperidine-2,6-dione]: at STAT6 [1], the 50% degradation concentration (DC50) was 0.1 nM. The dissociation constant Kd on STAT6 [2] is 37.8 nM.
